Assays:
Escherichia coli = test: Anti-biofilm activity, crystal violet spectrophotometric assay (Example 1); assay type: cell-based; conditions: E. coli
Description: (§1) The bacterial biofilm was formed in a sterile 96-well polystyrene plate. In short, a microbial suspension was prepared at an optical density of 0.5 McFarland for each strain. 20 μl of microbial suspension were added to each well containing 180 μl of VitE at various concentrations. Positive controls were performed by inoculating the bacteria in BHI+HA. Following incubation for 24 h at 37° C., the broth was removed, together with non-adherent microorganisms, and 200 μl of broth were added once again. The plates were incubated at 37° C. for another 48 h, until a mature biofilm was obtained.
(§2) The amount of biofilm was determined by means of a spectrophotometric assay, adopting the method developed by Christensen et al. (1985). At the end of the incubation period, the culture medium was removed and the wells covered by the biofilm were washed twice with a sterile saline solution and then dried. The biofilm was stained with 200 μl of a 5% crystal violet solution for 10 minutes. After staining, the wells were washed with a sterile saline solution to remove excess stain and left to dry completely. Lastly, 200 μl of 96% ethanol were added to each well to re-solubilize the stain included in the biofilm. Absorbance of the crystal violet was measured at 595 nm using a microplate reader. The assay was conducted in triplicate for each bacterial strain and repeated twice.

Pseudomonas aeruginosa [1] = test: as above; assay type: cell-based; conditions: P. aeruginosa
Description: as §1, §2

Staphylococcus aureus = test: as above; assay type: cell-based; conditions: S. aureus
Description: as §1, §2

[2] = test system: Staphylococcus epidermidis; test: as above; assay type: cell-based; conditions: S. epidermidis
Description: as §1, §2

Pseudomonas aeruginosa [3] = test: Biofilm on coated titanium disks, CFU count (Example 2); assay type: cell-based; conditions: P. aeruginosa, vitamin E acetate 5 mg/cm^2, methylene blue 20 μg/cm^2
Source text: (§3) This study used clinically relevant strains isolated from patients with prosthetic joint infections at the Microbiology Laboratory of the IRCCS Galeazzi Orthopaedic Institute (Italy). In particular, the following were selected: a strain of methicillin-resistant Staphylococcus epidermidis, a strain of methicillin-resistant Staphylococcus aureus and a strain of Pseudomonas aeruginosa. These strains were identified beforehand by means of biochemical assays (VITEK® 2 Compact, bioMérieux, Marcy l'Etoile, France) and stored at −80° C. prior to the analysis. Before beginning the study, all strains underwent testing to assess their ability to produce biofilms according to the spectrophotometric assay described by Christensen et al. (J Clin Microbiol 1985; 22: 996-1006).
(§4) Sterile disks of sandblasted titanium with a diameter of 25 mm and a thickness of 5 mm (Adler Ortho, Cormano, Italy) were used as the substrate for the formation of biofilms. The disks were coated with sub-inhibitory concentrations of vitamin E acetate (5 mg/cm^2) or vitamin E acetate with the addition of methylene blue (20 μg/cm^2). […] Uncoated disks were used as negative controls. Subsequently, an overnight bacteria culture was resuspended in Brain Heart Infusion Broth (BHI; Biomérieux) at a density of 1.5×10^8 CFU/ml for each strain, and 200 microliters of microbial suspension were inoculated in sterile polystyrene plates with 6 wells containing coated and uncoated disks and 4.8 ml of BHI. The plates were incubated at 37° C. in an aerobic atmosphere for 24 and 48 hours. The test was performed in triplicate for each strain.
(§5) Upon completion of the biofilm incubation time, the disks were washed twice with a sterile saline solution to eliminate non-adherent bacteria. The disks were then immersed in 5 ml of a 0.1 w/v % dithiothreitol solution (DTT, Sigma-Aldrich, Milan, Italy) and mechanically stirred for 15 minutes at room temperature. Suitable dilutions of the fluids obtained were inoculated on Tryptic Soy Agar (TSA, Merck) and incubated at 37° C. in an aerobic atmosphere for 24 hours for the CFU count.

[4] = test system: methicillin-resistant Staphylococcus aureus; test: as above; assay type: cell-based; conditions: S. aureus, vitamin E acetate 5 mg/cm^2, methylene blue 20 μg/cm^2
Source text: as §3, §4, §5

[5] = test system: methicillin-resistant Staphylococcus epidermidis; test: as above; assay type: cell-based; conditions: S. epidermidis, vitamin E acetate 5 mg/cm^2, methylene blue 20 μg/cm^2
Source text: as §3, §4, §5

P. acnes = test: MIC and MBC, broth microdilution (Example 3); assay type: cell-based
Description: MIC, defined as the lowest concentration capable of inhibiting bacterial growth, was determined using the broth microdilution method according to EUCAST guidelines (http://www.eucast.org/clinical_breakpoints/). In short, a suspension in Brain Heart Infusion Broth ([…], France) was prepared for each bacterial strain, with an optical density of 0.5 McFarland (1.5×10^8 CFU/ml). The P. acnes broth was supplemented with 5% defibrinated sheep blood ([…] Abruzzi, Italy). After a concentration of 10^5 UFC/ml was obtained using appropriate dilutions, each suspension was inoculated in a 96-well microtitre plate containing a two-fold serial dilution of vitamin E acetate (VitE-Ac) and vitamin E phosphate. The controls were performed by inoculating bacterial suspensions in BHI alone. […] After incubation at adequate conditions, MBC was read as the lowest concentration capable of killing 99.9% of the initial inoculum.

P. aeruginosa = test: Anti-adhesion activity on coated titanium disks, CFU count (Example 3); assay type: cell-based, Pseudomonas aeruginosa; conditions: 5 mg/cm^2 coating, 30, 60 and 120 minutes
Description: Sterile disks of sandblasted titanium with a diameter of 25 mm and a thickness of 5 mm (Adler Ortho, Cormano, Italy) were used as the substrate for the formation of biofilms. The disks were coated with sub-inhibitory concentrations of vitamin E acetate (5 mg/cm^2) or vitamin E phosphate (5 mg/cm^2). The concentrations were selected based on the MIC results. Uncoated disks were used as negative controls. The anti-adhesion activity of vitamin E was assessed against a representative strain for each species. An overnight bacteria culture was resuspended in Brain Heart Infusion Broth (BHI; Biomérieux) at a density of 1.0×10^7 CFU/ml for each strain, and 400 microliters of microbial suspension were inoculated on coated and uncoated disks. The test was performed in triplicate for each strain. After 30, 60 and 120 minutes of incubation, the disks were washed twice with a sterile saline solution to eliminate non-adherent bacteria. The disks were then immersed in 5 ml of a 0.1 w/v % dithiothreitol solution (DTT, Sigma-Aldrich, Milan, Italy) and mechanically stirred for 15 minutes at room temperature. Suitable dilutions of the fluids obtained were inoculated on Tryptic Soy Agar (TSA, Merck) and incubated at 37° C. in an aerobic atmosphere for 24 hours for the CFU count.

CC(=O)Oc1c(C)c(C)c2c(c1C)CCC(C)(CCC[C@H](C)CCC[C@H](C)CCCC(C)C)O2 (stereo partly drawn) [Vitamin E acetate, α-tocopherol acetate]
reduction of microbial biofilm with respect to the control (Escherichia coli; 2.5% VitE in HA carrier): 18%
reduction of microbial biofilm with respect to the control (Escherichia coli; 5% VitE in HA carrier): 38%
reduction of microbial biofilm with respect to the control (Pseudomonas aeruginosa [1]; 2.5% VitE in HA carrier): 24%
reduction of microbial biofilm with respect to the control (Pseudomonas aeruginosa [1]; 5% VitE in HA carrier): 39%
reduction of microbial biofilm with respect to the control (Staphylococcus aureus; 2.5% VitE in HA carrier): 63%
reduction of microbial biofilm with respect to the control (Staphylococcus aureus; 5% VitE in HA carrier): 79%
reduction of microbial biofilm with respect to the control ([2]; 2.5% VitE in HA carrier): 30%
reduction of microbial biofilm with respect to the control ([2]; 5% VitE in HA carrier): 46%
biofilm reduction with respect to the controls (in words) (Pseudomonas aeruginosa [3]; 24 hours): not after 24 hours
biofilm reduction with respect to the controls (in words) (Pseudomonas aeruginosa [3]; 48 hours): effective after 48 hours
biofilm reduction with respect to the controls (in words) ([4]; 24 hours): significant
biofilm reduction with respect to the controls (in words) ([4]; 48 hours): significant
biofilm reduction with respect to the controls (in words) ([5]; 24 hours): significant
biofilm reduction with respect to the controls (in words) ([5]; 48 hours): significant
MIC range (P. acnes; 48 hours, broth with 5% defibrinated sheep blood): >200 mg/mL
MBC range (P. acnes; kills 99.9% of the initial inoculum): >200 mg/mL
decrease in adhesion (in words) (P. aeruginosa): No effect

Source: patent publication US20190015385A1, “VITAMIN E PHOSPHATE OR ACETATE FOR USE IN THE TREATMENT AND PREVENTION OF BIOFILM INFECTIONS” (priority 2016, published 2019)
